The structures appear in SMILES notation. ≈ marks a conversion by molar mass, not a printed value. A value given as a limit tells only on which side of the number the result lay.

One may read the MIC as the lowest concentration that inhibits growth of the organism.

Assay type in all cases: functional
In one assay the test system is Pseudomonas aeruginosa. In words: Antibacterial activity against Pseudomonas aeruginosa 28 assessed as growth inhibition.
Assay [1] relates to Plasmodium berghei. As to the kind of experiment: Antimalarial activity against trophozoite-induced Plasmodium berghei infected in sc dosed mouse assessed as minimum curative dose.
A further assay deals with Enterococcus faecalis. In words: Antibacterial activity against Streptococcus faecalis MGH-2 assessed as growth inhibition.
The subject of assay [2] is Mycobacterium tuberculosis. As to the kind of experiment: Antibacterial activity against Mycobacterium tuberculosis H37Rv assessed as growth inhibition.
Assay [3] relates to Plasmodium gallinaceum. In words: Antimalarial activity against sporozoite-induced Plasmodium gallinaceum infected in chick assessed as change in cured at 120 mg/kg, sc single dose. The note with it: route subcutaneous.
Assay [4] deals with Staphylococcus aureus. As to the kind of experiment: Antibacterial activity against Staphylococcus aureus UC-76 assessed as growth inhibition.
The next assay concerns Shigella sonnei. In words: Antibacterial activity against Shigella sonnei C-10 assessed as growth inhibition.
The test system of assay [5] is Plasmodium berghei. In words: Antimalarial activity against trophozoite-induced Plasmodium berghei infected in mouse assessed as change in mean survival time at 20 mg/kg, sc single dose after 72 hrs of infection. As to conditions: route subcutaneous.
Assay [6] has as its system Plasmodium berghei. As to the kind of experiment: Antimalarial activity against trophozoite-induced Plasmodium berghei infected in mouse assessed as change in mean survival time at 5 mg/kg, sc single dose after 72 hrs of infection. The note with it: route subcutaneous.
The test system of another assay is Escherichia coli. As to the kind of experiment: Antibacterial activity against Escherichia coli Vogel assessed as growth inhibition.
In assay [7] the test system is Plasmodium berghei. In words: Antimalarial activity against trophozoite-induced Plasmodium berghei infected in mouse assessed as change in mean survival time at 1.25 mg/kg, sc single dose after 72 hrs of infection. The note with it: route subcutaneous.
The subject of assay [8] is Staphylococcus aureus. In words: Antibacterial activity against Staphylococcus aureus S18713 assessed as growth inhibition.
The test system of assay [9] is Plasmodium berghei. In words: Antimalarial activity against trophozoite-induced Plasmodium berghei infected in mouse assessed as change in mean survival time at 2.5 mg/kg, sc single dose after 72 hrs of infection. The note with it: route subcutaneous.
The test system of assay [10] is Plasmodium berghei. As to the kind of experiment: Antimalarial activity against trophozoite-induced Plasmodium berghei infected in mouse assessed as change in mean survival time at 10 mg/kg, sc single dose after 72 hrs of infection. The note with it: route subcutaneous.
Assay [11] has as its system Plasmodium berghei. In words: Antimalarial activity against trophozoite-induced Plasmodium berghei infected in mouse assessed as change in mean survival time at 80 mg/kg, sc single dose after 72 hrs of infection. As to conditions: route subcutaneous.
Assay [12] concerns Plasmodium berghei. As to the kind of experiment: Antimalarial activity against trophozoite-induced Plasmodium berghei infected in mouse assessed as change in mean survival time at 40 mg/kg, sc single dose after 72 hrs of infection. As to conditions: route subcutaneous.
In assay [13] the test system is Plasmodium berghei. In words: Antimalarial activity against trophozoite-induced Plasmodium berghei infected in mouse assessed as change in mean survival time at 160 mg/kg, sc single dose after 72 hrs of infection. As to conditions: route subcutaneous.
Assay [14] has as its system Plasmodium berghei. As to the kind of experiment: Antimalarial activity against trophozoite-induced Plasmodium berghei infected in mouse assessed as change in mean survival time at 320 mg/kg, sc single dose after 72 hrs of infection. The note with it: route subcutaneous.
In assay [15] the test system is Plasmodium berghei. As to the kind of experiment: Antimalarial activity against trophozoite-induced Plasmodium berghei infected in mouse assessed as change in mean survival time at 640 mg/kg, sc single dose after 72 hrs of infection. As to conditions: route subcutaneous.
The subject of assay [16] is Plasmodium gallinaceum. As to the kind of experiment: Antimalarial activity against sporozoite-induced Plasmodium gallinaceum infected in chick assessed as change in cured at 60 mg/kg, sc single dose. As to conditions: route subcutaneous.
For assay [17], the system named is Plasmodium gallinaceum. In words: Antimalarial activity against sporozoite-induced Plasmodium gallinaceum infected in chick assessed as change in cured at 30 mg/kg, sc single dose. As to conditions: route subcutaneous.
Assay [18] concerns Plasmodium gallinaceum. As to the kind of experiment: Antimalarial activity against sporozoite-induced Plasmodium gallinaceum infected in chick assessed as change in cured at 15 mg/kg, sc single dose. The note with it: route subcutaneous.
Assay [19] has as its system Plasmodium falciparum. As to the kind of experiment: Antimalarial activity against Plasmodium falciparum Vietnam Smith in po once daily dosed Owl monkey assessed as curative dose compound treated for 7 days.
The subject of assay [20] is Plasmodium falciparum. As to the kind of experiment: Antimalarial activity against Plasmodium falciparum Vietnam Oak Knoll in po once daily dosed Owl monkey assessed as curative dose compound treated for 7 days.
Assay [21] concerns Plasmodium falciparum. In words: Antimalarial activity against chloroquine-sensitive, pyrimethamine-resistant Plasmodium falciparum Malayan Camp CH/Q infected in Aotus monkey assessed as dose required to >50% cures compound treated for 7 days.
Assay [22] relates to Plasmodium falciparum. As to the kind of experiment: Antimalarial activity against Plasmodium falciparum Malayan Camp CH/Q infected in po once daily dosed Owl monkey assessed as curative dose compound treated for 7 days.
The test system of assay [23] is Plasmodium vivax. In words: Antimalarial activity against Plasmodium vivax VietnamPalo Alto in po once daily dosed Owl monkey assessed as curative dose compound treated for 7 days.
Assay [24] deals with Plasmodium falciparum. As to the kind of experiment: Antimalarial activity against chloroquine-resistant, pyrimethamine-sensitive Plasmodium falciparum Vietnam Oak Knoll in Aotus monkey assessed as dose required to >50% cures compound treated for 7 days.
For assay [25], the system named is Plasmodium vivax. As to the kind of experiment: Antimalarial activity against Plasmodium vivax New Guinea Chesson in po once daily dosed Owl monkey assessed as curative dose compound treated for 7 days.

Regarding `Nc1nc(N)c2cc(S(=O)(=O)c3ccc(Cl)c(Cl)c3)ccc2n1`, the MIC in the assay with Pseudomonas aeruginosa was greater than 25 µg/mL; in the assay on Enterococcus faecalis, less than 0.25 µg/mL; in assay [2], 20 µg/mL (≈ 54.2 µM); with Staphylococcus aureus [4], 0.5 µg/mL (≈ 1.35 µM); with Shigella sonnei, 20 µg/mL (≈ 54.2 µM); in the assay with Escherichia coli, 2.5 µg/mL (≈ 6.77 µM). Also, the MIC with Staphylococcus aureus [8] was 1 µg/mL (≈ 2.71 µM). In addition, the MCD in the assay with Plasmodium berghei [1] came out at 10 mg/kg. The MST in the assay with Plasmodium gallinaceum [3] stood at 0 days; in the assay with Plasmodium berghei [5], 11.2 days; in the assay with Plasmodium berghei [6], 5.9 days; in the assay with Plasmodium berghei [7], 1.1 days; with Plasmodium berghei [9], 3.5 days; with Plasmodium berghei [10] it was 10.3 days.
As for `Nc1nc(N)c2cc(S(=O)(=O)c3ccccc3-c3ccccc3)ccc2n1`, the MIC in the assay on Pseudomonas aeruginosa was greater than 25 µg/mL; with Enterococcus faecalis, 0.25 µg/mL (≈ 0.664 µM); in the assay on Staphylococcus aureus [4], greater than 25 µg/mL; in the assay on Shigella sonnei, greater than 25 µg/mL; in the assay on Escherichia coli, greater than 25 µg/mL; with Staphylococcus aureus [8] it was greater than 25 µg/mL. Also, the MCD in the assay on Plasmodium berghei [1] came to 640 mg/kg. Further, the MST in the assay on Plasmodium berghei [11] amounted to 0.5 days; in the assay with Plasmodium berghei [12], 0.3 days; in the assay with Plasmodium berghei [13], 0.7 days; with Plasmodium berghei [14], 0.7 days; with Plasmodium berghei [5], 0.3 days; with Plasmodium berghei [15], 1.1 days.
As for `Nc1nc(N)c2cc([S+]([O-])c3ccccc3-c3ccccc3)ccc2n1` (configuration not stated), the minimal inhibitory concentration (MIC) is greater than 25 µg/mL in the assay with Pseudomonas aeruginosa; less than 0.25 µg/mL in the assay with Enterococcus faecalis; 25 µg/mL (≈ 69.4 µM) in assay [2]; 2.5 µg/mL (≈ 6.94 µM) in the assay on Staphylococcus aureus [4]; greater than 25 µg/mL in the assay on Shigella sonnei; greater than 25 µg/mL in the assay on Escherichia coli. In the assay with Staphylococcus aureus [8], the minimal inhibitory concentration (MIC) stood at 5 µg/mL (≈ 13.9 µM). In addition, the MCD in the assay on Plasmodium berghei [1] came to 640 mg/kg. In addition, the MST with Plasmodium berghei [11] is 0.5 days; in the assay with Plasmodium gallinaceum [16] it was 3.7 days; in the assay with Plasmodium gallinaceum [17], 0 days; in the assay with Plasmodium berghei [12] it was 0.3 days; in the assay with Plasmodium berghei [13], 3.3 days; in the assay with Plasmodium berghei [14], 5.7 days. For the same compound, the MST in the assay on Plasmodium berghei [5] was 0.3 days; in the assay with Plasmodium gallinaceum [18] it was 0 days; with Plasmodium berghei [15], 12.7 days; with Plasmodium berghei [10] it was 0.3 days.
For `C=C[C@H]1CN2CC[C@H]1C[C@H]2[C@H](O)c1ccnc2ccc(OC)cc12.Cl` [QUININE HYDROCHLORIDE], the CD90 is greater than 80 mg/kg in the assay with Plasmodium falciparum [19]; 80 mg/kg with Plasmodium falciparum [20]; 20 mg/kg in the assay on Plasmodium falciparum [22]; 40 mg/kg in the assay with Plasmodium vivax [23]; 40 mg/kg in the assay on Plasmodium vivax [25]. For the same compound, the Activity worked out at 80 mg/kg in the assay with Plasmodium falciparum [21] and 40 mg/kg with Plasmodium falciparum [24].

The record behind these values is ChEMBL document CHEMBL3244272, “Folate antagonists. 15. 2,3-Diamino-6-(2-naphthylsulfonyl)quinazoline and related 2,4-diamino-6-[(phenyl and naphthyl)sulfinyl and sulfonyl]quinazolines, a potent new class of antimetabolites with phenomenal antimalarial activity” (J Med Chem, 1979).
